US11384069B2, “Diphenylaminopyrimidine compound for inhibiting kinase activity” (Shenzhen TargetRx, Inc., priority 2018, dated 2022)

Legend:
[1] = Metabolic stability evaluation, mouse liver microsome experiment; type: in vitro ADME; conditions: liver microsomes, pH 7.4, 1 μM compound, 0.5 mg/mL protein, 37° C.; for half-life at 1 μM: read-out: Mouse liver microsome experiment t1/2
Procedure: (§1) Microsomal experiment: human liver microsomes: 0.5 mg/mL, Xenotech; rat liver microsomes: 0.5 mg/mL, Xenotech; mouse liver microsomes: 0.5 mg/mL, Xenotech; coenzyme (NADPH/NADH): 1 mM, Sigma Life Science; magnesium chloride: 5 mM, 100 mM phosphate buffer (pH 7.4).
(§2) Preparation of a stock solution: A certain amount of the powder of the example compounds was accurately weighed and dissolved in DMSO to a 5 mM concentration.
(§3) Preparation of phosphate buffer (100 mM, pH 7.4): 150 mL of a pre-prepared 0.5 M potassium dihydrogen phosphate and 700 mL of a pre-prepared 0.5 M dipotassium hydrogen phosphate were mixed. The mixture was then adjusted to pH 7.4 with a 0.5 M dipotassium hydrogen phosphate solution. The mixture was diluted 5-fold with ultrapure water before use, and magnesium chloride was added to obtain a phosphate buffer (100 mM) containing 100 mM potassium phosphate, 3.3 mM magnesium chloride, and a pH of 7.4.
(§4) A solution of NADPH regeneration system (containing 6.5 mM NADP, 16.5 mM G-6-P, 3 U/mL G-6-P D, 3.3 mM magnesium chloride) was prepared and placed on wet ice before use.
(§5) Preparation of a stop solution: an acetonitrile solution containing 50 ng/mL propranolol hydrochloride and 200 ng/mL tolbutamide (internal standard). 25057.5 μL of phosphate buffer (pH 7.4) was added into a 50 mL centrifuge tube, 812.5 μL of human liver microsomes, rat liver microsomes and mouse liver microsomes were then added into the 50 mL centrifuge tube, respectively, and the mixtures were mixed evenly to obtain liver microsome dilutions with a protein concentration of 0.625 mg/mL. Incubation of samples: The stock solutions of the corresponding compounds were diluted to 0.25 mM with an aqueous solution containing 70% acetonitrile, respectively, and used as working solutions ready for use. 398 μL of dilutions of human liver microsomes or rat liver microsomes or mouse liver microsome were added to 96-well incubation plates (N=2), and then 2 μL of 0.25 mM working solutions were added and mixed, respectively.
(§6) Determination of metabolic stability: 300 μL of a pre-cooled stop solution was added to each well of a 96-well deep well plate and placed on ice as a stop plate. The 96-well incubation plate and the NADPH regeneration system were placed in a 37° C. water bath, shaken at 100 rpm, and pre-incubated for 5 min. 80 μL of an incubation solution was taken from each well of the incubation plate and added to the stop plate, mixed evenly, and replenished with 20 μL of NADPH regeneration system solution as a 0 min sample. 80 μL of NADPH regeneration system solution was then added to each well of the incubation plate to start the reaction, and timing was started. […] 100 μL of the reaction solution was taken at 10, 30, and 90 min after reaction, respectively, added to the stop plate, and vortexed for 3 minutes to terminate the reaction. The stop plate was centrifuged for 10 min at 5000×g at 4° C. 100 μL of the supernatant was added to a 96-well plate to which 100 μL of distilled water was previously added, mixed evenly, and analyzed by LC-MS/MS.
(§7) Data analysis: The peak areas of the corresponding compounds and internal standard were detected by LC-MS/MS system, and the ratio of the peak areas of the compounds to the internal standard was calculated.

[2] = Metabolic stability evaluation, rat liver microsome experiment; type: in vitro ADME; conditions: liver microsomes, pH 7.4, 1 μM compound, 0.5 mg/mL protein, 37° C.; for half-life at 1 μM: read-out: Rat liver microsome experiment t1/2
Procedure: as §1, §2, §3, §4, §5, §6, §7

[3] = Metabolic stability evaluation, human liver microsome experiment; type: in vitro ADME; conditions: liver microsomes, pH 7.4, 1 μM compound, 0.5 mg/mL protein, 37° C.; for half-life at 1 μM: read-out: Human liver microsome experiment t1/2
Procedure: as §1, §2, §3, §4, §5, §6, §7

[4] = test system: BaF3-EpoR-JAK2/V617F cells; test: Cytotoxicity assay, BaF3-EpoR-JAK2/V617F cells (CellTiter-Glo); type: cell-based; conditions: 72 h; 3 days incubation, 1 ng/ml IL-3, CellTiter-Glo
Procedure: Assay method: 1. Preparation of cell plates. […] The cell plates were placed in a carbon dioxide incubator for overnight culture. 2. The test compounds were dissolved in DMSO and subjected to 3-fold gradient dilution, 9 compound concentrations were obtained in duplicate. 3. Treatments of Cells with Compounds. The compounds were transferred to cell plates, and the starting concentration of the compounds is 10 μM. The cell plates were incubated in a carbon dioxide incubator for 3 days. 4. Detection. A CellTiter-Glo reagent was added to the cell plates and incubated for 30 minutes at room temperature to stabilize the luminescence signal. Reading was obtained using a PerkinElmer Envision multi-label analyzer.

BaF3-EpoR-JAK2 cells = test: Cytotoxicity assay, BaF3-EpoR-JAK2 cells (CellTiter-Glo); type: cell-based; conditions: 72 h; 3 days incubation, 1 ng/ml IL-3, CellTiter-Glo
Procedure: The inhibitory effects of example compounds on the activity of BaF3-EpoR-JAK2 and BaF3-EpoR-JAK2/V617F cells were determined.
Materials and reagents: RPMI-1640 medium (GIBCO, Cat. No. A10491-01), fetal bovine serum (GIBCO, Cat. No. 10099-141), antibiotics (GIBCO, Cat. No. 10010-031), IL-3 (CST, Cat. No. 8923SF), phosphate buffer solution PBS (GIBCO, Cat. No. 10010-0312), penicillin-streptomycin (GIBCO, Cat. No. 15140-122);
Cell lines: BaF3-EpoR-JAK2 cells (Pharmaron), BaF3-EpoR-JAK2/V617F cells (Pharmaron), live cell assay kit CellTiter-Glo4 (Promega, Cat. No. G7572), 96-well black-wall clear flat-bottom cell culture plate (Corning, Cat. No. 3340).
Assay method: 1. Preparation of cell plates. BaF3-EpoR-JAK2 cells and BaF3-EpoR-JAK2/V617F cells were seeded in 96-well plates, respectively, and 1 ng/ml IL-3 was added to Ba/F3 cells. The cell plates were placed in a carbon dioxide incubator for overnight culture. 2. The test compounds were dissolved in DMSO and subjected to 3-fold gradient dilution, 9 compound concentrations were obtained in duplicate. 3. Treatments of Cells with Compounds. The compounds were transferred to cell plates, and the starting concentration of the compounds is 10 μM. The cell plates were incubated in a carbon dioxide incubator for 3 days. 4. Detection. A CellTiter-Glo reagent was added to the cell plates and incubated for 30 minutes at room temperature to stabilize the luminescence signal. Reading was obtained using a PerkinElmer Envision multi-label analyzer.

[5] = Rat pharmacokinetic experiment; type: in vivo; conditions: male Sprague-Dawley rats, single dose 3 mg/kg intravenously, 10 mg/kg orally
Procedure: 6 male Sprague-Dawley rats (7-8 weeks old, and weighted approximately 210 g) were divided into 2 groups with 3 rats in each group. The rats were intravenously or orally administered a single dose of compound (3 mg/kg intravenously, 10 mg/kg orally) to compare pharmacokinetic differences.
The rats were raised on standard food and water. Fasting was started 16 hours before the test. The drug was dissolved with PEG400 and dimethyl sulfoxide. The blood samples were collected from eyelids at the time points of 0.083 hours, 0.25 hours, 0.5 hours, 1 hour, 2 hours, 4 hours, 6 hours, 8 hours, 12 hours, and 24 hours after administration.
Rats were briefly anesthetized after inhalation of diethyl ether and 300 μL of blood sample was collected from the eyelids into test tubes. There was 30 μL of 1% heparin salt solution in the test tube. Tubes were dried at 60° C. overnight before use. After the blood sample was collected at the last time point, the rats were sacrificed after ether anesthesia.
Immediately after the collection of the blood sample, the test tube was gently inverted at least 5 times to ensure sufficient mixing and then placed on ice. […] The concentration of the compound disclosed herein in plasma was determined by LC-MS/MS. The pharmacokinetic parameters were calculated based on the drug concentration in blood of each animal at different time points.

**Q.** Which microsomal CLint at 1 μM [1] does the source give for `[2H]C([2H])(Oc1ccc(Nc2ncc(C)c(Nc3cccc(S(=O)(=O)NC(C)(C)C)c3)n2)cc1)C([2H])([2H])N1CCCC1` [Compound T-1, N-(tert-butyl)-3-((5-methyl-2-((4-(2-(pyrrolidin-1-yl)ethoxy-1,1,2,2-d4)phenyl)amino)pyrimidin-4-yl)amino)benzenesulfonamide] here?
**A.** 157 µL/min/mg

**Q.** What about the half-life at 1 μM [1] of the same molecule?
**A.** 8.8 min

**Q.** And the microsomal CLint at 1 μM [2]?
**A.** 73.9 µL/min/mg

**Q.** What about the half-life at 1 μM [2] of the same molecule?
**A.** 18.7 min

**Q.** And the microsomal CLint at 1 μM [3]?
**A.** 6.8 µL/min/mg

**Q.** And the half-life at 1 μM [3]?
**A.** 203 min

**Q.** And the IC50 [4]?
**A.** 206 nM

**Q.** And the IC50 (BaF3-EpoR-JAK2 cells)?
**A.** 536 nM

**Q.** With `[2H]c1nc(Nc2ccc(OCCN3CCCC3)cc2)nc(Nc2cccc(S(=O)(=O)NC(C)(C)C)c2)c1C([2H])([2H])[2H]` [Compound T-2, N-(tert-butyl)-3-((5-(methyl-d3)-2-((4-(2-(pyrrolidin-1-yl)ethoxy)phenyl)amino)pyrimidin-4-yl-6-d)amino)benzenesulfonamide] as the molecule, how does the microsomal CLint at 1 μM [1] read?
**A.** 174 µL/min/mg

**Q.** And the half-life at 1 μM [1]?
**A.** 8 min

**Q.** And the IC50 [4]?
**A.** 196 nM

**Q.** What about the IC50 (BaF3-EpoR-JAK2 cells) of the same molecule?
**A.** 725 nM

**Q.** For `[2H]C([2H])([2H])C(C)(NS(=O)(=O)c1cccc(Nc2nc(Nc3ccc(OCCN4CCCC4)cc3)ncc2C)c1)C([2H])([2H])[2H]` [Compound T-3, 3-((5-methyl-2-((4-(2-(pyrrolidin-1-yl)ethoxy)phenyl)amino)pyrimidin-4-yl)amino)-N-(2-methylpropan-2-yl-1,1,1,3,3,3-d6)benzenesulfonamide], which microsomal CLint at 1 μM [1] is on record?
**A.** 206 µL/min/mg

**Q.** What about the half-life at 1 μM [1] of the same molecule?
**A.** 6.7 min

**Q.** What about the microsomal CLint at 1 μM [2] of the same molecule?
**A.** 80.4 µL/min/mg

**Q.** What about the half-life at 1 μM [2] of the same molecule?
**A.** 17.2 min

**Q.** What about the IC50 [4] of the same molecule?
**A.** 244 nM

**Q.** What about the IC50 (BaF3-EpoR-JAK2 cells) of the same molecule?
**A.** 604 nM

**Q.** For `[2H]C([2H])([2H])C(NS(=O)(=O)c1cccc(Nc2nc(Nc3ccc(OCCN4CCCC4)cc3)ncc2C)c1)(C([2H])([2H])[2H])C([2H])([2H])[2H]` [Compound T-4, 3-((5-methyl-2-((4-(2-(pyrrolidin-1-yl)ethoxy)phenyl)amino)pyrimidin-4-yl)amino)-N-(2-(methyl-d3)propan-2-yl-1,1,1,3,3,3-d6)benzenesulfonamide], which microsomal CLint at 1 μM [1] is on record?
**A.** 194 µL/min/mg

**Q.** What about the half-life at 1 μM [1] of the same molecule?
**A.** 7.1 min

**Q.** What about the microsomal CLint at 1 μM [2] of the same molecule?
**A.** 76.6 µL/min/mg

**Q.** And the half-life at 1 μM [2]?
**A.** 18.1 min

**Q.** And the IC50 [4]?
**A.** 238 nM

**Q.** And the IC50 (BaF3-EpoR-JAK2 cells)?
**A.** 587 nM

**Q.** Which microsomal CLint at 1 μM [1] does the source give for `[2H]C1([2H])N(CCOc2ccc(Nc3ncc(C)c(Nc4cccc(S(=O)(=O)NC(C)(C)C)c4)n3)cc2)C([2H])([2H])C([2H])([2H])C1([2H])[2H]` [Compound T-5, N-(tert-butyl)-3-((5-methyl-2-((4-(2-(pyrrolidin-1-yl-d8)ethoxy)phenyl)amino)pyrimidin-4-yl)amino)benzenesulfonamide] here?
**A.** 158 µL/min/mg

**Q.** What about the half-life at 1 μM [1] of the same molecule?
**A.** 8.8 min

**Q.** And the microsomal CLint at 1 μM [2]?
**A.** 77 µL/min/mg

**Q.** What about the half-life at 1 μM [2] of the same molecule?
**A.** 18 min

**Q.** What about the Oral availability [5] of the same molecule?
**A.** 7.48%

**Q.** And the microsomal CLint at 1 μM [3]?
**A.** 11.5 µL/min/mg

**Q.** And the half-life at 1 μM [3]?
**A.** 121 min

**Q.** And the IC50 [4]?
**A.** 269 nM

**Q.** And the IC50 (BaF3-EpoR-JAK2 cells)?
**A.** 690 nM

**Q.** With `Cc1cnc(Nc2ccc(OCCN3CCCC3)cc2)nc1Nc1cccc(S(=O)(=O)NC(C)(C)C)c1` [Fedratinib, N-(tert-butyl)-3-((5-methyl-2-((4-(2-(pyrrolidin-1-yl)ethoxy)phenyl)amino)pyrimidin-4-yl)amino)benzenesulfonamide, reference compound] as the molecule, how does the microsomal CLint at 1 μM [1] read?
**A.** 238 µL/min/mg

**Q.** What about the half-life at 1 μM [1] of the same molecule?
**A.** 5.8 min

**Q.** What about the microsomal CLint at 1 μM [2] of the same molecule?
**A.** 81.3 µL/min/mg

**Q.** What about the half-life at 1 μM [2] of the same molecule?
**A.** 17 min

**Q.** And the Oral availability [5]?
**A.** 7.24%

**Q.** And the microsomal CLint at 1 μM [3]?
**A.** 12.5 µL/min/mg

**Q.** What about the half-life at 1 μM [3] of the same molecule?
**A.** 111 min

**Q.** And the IC50 [4]?
**A.** 211 nM

**Q.** And the IC50 (BaF3-EpoR-JAK2 cells)?
**A.** 653 nM
